In US9181218B2, “Compounds for improved stem cell differentiation into hepatocytes” (Hoffmann-La Roche Inc., priority 2013, dated 2015):

System: interferon-stimulated genes (ISGs)
Assay: Microarray analysis of iCell Hepatocytes treated with the compound of example 1
Format: cell-based, Human
Source text: iCell Hepatocytes treated with the compound of example 1 results in the up and down-regulation of a host of genes; including a kinetic effect on interferon-stimulated gene (ISGs) expression. See FIGS. 15-I and 15-II, 16-I and 16-II and 18 and Table 1.

**Q.** What does the source list for `O=C(NCc1cccc(F)c1)c1cccc2nc(-c3c(NC[C@@H](O)c4ccccc4)cc[nH]c3=O)[nH]c12` [Example 1, 2-[4-((S)-2-hydroxy-2-phenyl-ethylamino)-2-oxo-1,2-dihydro-pyridin-3-yl]-3H-benzoimidazole-4-carboxylic acid 3-fluoro-benzylamide]?
**A.** JAK2 Raw Est Fold Change (DAY 7): 1.39; JUNB Raw Est Fold Change (DAY 7): −8.16; KIAA0040 Raw Est Fold Change (DAY 7): −1.76; KIF5C Raw Est Fold Change (DAY 7): −4.32; KPNB1 Raw Est Fold Change (DAY 7): −1.34; LRP4 Raw Est Fold Change (DAY 7): −2.80; LTBP2 Raw Est Fold Change (DAY 7): −2.94; LYN Raw Est Fold Change (DAY 7): −1.71; MAFB Raw Est Fold Change (DAY 7): 6.31; MAFK Raw Est Fold Change (DAY 7): −1.70; MAP3K8 Raw Est Fold Change (DAY 7): −6.22; MAX Raw Est Fold Change (DAY 7): −1.95; MCL1 Raw Est Fold Change (DAY 7): −1.33; MSR1 Raw Est Fold Change (DAY 7): 16.00; MT1F Raw Est Fold Change (DAY 7): 2.56; MTHFD2L Raw Est Fold Change (DAY 7): −5.12; MTMR1 Raw Est Fold Change (DAY 7): −1.20; MYC Raw Est Fold Change (DAY 7): −7.27; MYD88 Raw Est Fold Change (DAY 7): 1.19; MYOM2 Raw Est Fold Change (DAY 7): 1.59; MYT1 Raw Est Fold Change (DAY 7): −3.88; NEXN Raw Est Fold Change (DAY 7): −2.35; NFE2 Raw Est Fold Change (DAY 7): −5.79; NFIL3 Raw Est Fold Change (DAY 7): −1.60; NGFB Raw Est Fold Change (DAY 7): 1.97; NLRC5 Raw Est Fold Change (DAY 7): −3.27; NMI Raw Est Fold Change (DAY 7): 1.34; NPAS2 Raw Est Fold Change (DAY 7): −4.43; OPTN Raw Est Fold Change (DAY 7): 1.28; PADI2 Raw Est Fold Change (DAY 7): 4.13; PARP14 Raw Est Fold Change (DAY 7): 1.33; PCK2 Raw Est Fold Change (DAY 7): 8.00; PCMT1 Raw Est Fold Change (DAY 7): −1.45; PCTK3 Raw Est Fold Change (DAY 7): 2.27; PDGFRL Raw Est Fold Change (DAY 7): −3.16; PEX26 Raw Est Fold Change (DAY 7): 1.38; PHF11 Raw Est Fold Change (DAY 7): −2.75; PHF15 Raw Est Fold Change (DAY 7): −1.69; PHLDA1 Raw Est Fold Change (DAY 7): −9.08; PI4K2B Raw Est Fold Change (DAY 7): 1.41; PIM3 Raw Est Fold Change (DAY 7): −2.64; PLAC8 Raw Est Fold Change (DAY 7): 5.43; PLAUR Raw Est Fold Change (DAY 7): −2.56; PLSCR1 Raw Est Fold Change (DAY 7): −2.59; PML Raw Est Fold Change (DAY 7): −2.58; PON1 Raw Est Fold Change (DAY 7): 5.18; PON2 Raw Est Fold Change (DAY 7): −1.39; PPIC Raw Est Fold Change (DAY 7): −2.26; PSMB10 Raw Est Fold Change (DAY 7): 1.91; PTEN Raw Est Fold Change (DAY 7): −1.44; PUS1 Raw Est Fold Change (DAY 7): −1.41; PXK Raw Est Fold Change (DAY 7): −1.23; RAB27A Raw Est Fold Change (DAY 7): −5.10; RAN Raw Est Fold Change (DAY 7): −1.29; RBMS1 Raw Est Fold Change (DAY 7): −3.48; RECQL Raw Est Fold Change (DAY 7): −1.66; RIPK2 Raw Est Fold Change (DAY 7): −1.45; RPL22 Raw Est Fold Change (DAY 7): 3.02; RSAD2 Raw Est Fold Change (DAY 7): 5.52; RXRA Raw Est Fold Change (DAY 7): 1.28; SAA1 Raw Est Fold Change (DAY 7): −1.51; SAMD9L Raw Est Fold Change (DAY 7): 2.42; SCARB2 Raw Est Fold Change (DAY 7): 1.64; SDC2 Raw Est Fold Change (DAY 7): 1.66; SELL Raw Est Fold Change (DAY 7): 3.83; SELP Raw Est Fold Change (DAY 7): 5.95; SERPINB9 Raw Est Fold Change (DAY 7): −1.86; SF3A1 Raw Est Fold Change (DAY 7): 1.26; SFPQ Raw Est Fold Change (DAY 7): −1.57; SHMT2 Raw Est Fold Change (DAY 7): 1.44; SLC7A5 Raw Est Fold Change (DAY 7): 1.78; SLC10A1 Raw Est Fold Change (DAY 7): 10.61; SLC15A2 Raw Est Fold Change (DAY 7): −1.52; SLC20A1 Raw Est Fold Change (DAY 7): 1.90; SLC25A28 Raw Est Fold Change (DAY 7): −1.47; SLC30A1 Raw Est Fold Change (DAY 7): 2.66; SLFN12 Raw Est Fold Change (DAY 7): −1.92; SOAT2 Raw Est Fold Change (DAY 7): 11.97; SOCS1 Raw Est Fold Change (DAY 7): −42.96; SOCS3 Raw Est Fold Change (DAY 7): −17.74; SPSB1 Raw Est Fold Change (DAY 7): −2.63; SPTLC2 Raw Est Fold Change (DAY 7): −1.49; SRGAP2 Raw Est Fold Change (DAY 7): 1.95; SSBP3 Raw Est Fold Change (DAY 7): 1.49; SSR1 Raw Est Fold Change (DAY 7): −1.71; STAT1 Raw Est Fold Change (DAY 7): −4.03; STEAP4 Raw Est Fold Change (DAY 7): −1275.83; STK39 Raw Est Fold Change (DAY 7): −1.88; TAP1 Raw Est Fold Change (DAY 7): −1.72; TAP2 Raw Est Fold Change (DAY 7): −2.02; TARBP1 Raw Est Fold Change (DAY 7): −1.18; TCF7L2 Raw Est Fold Change (DAY 7): −1.57; TEAD4 Raw Est Fold Change (DAY 7): −6.47; TFDP2 Raw Est Fold Change (DAY 7): 1.26; TFEC Raw Est Fold Change (DAY 7): 7.83; TFPI Raw Est Fold Change (DAY 7): −1.80; THBD Raw Est Fold Change (DAY 7): −6.70; TIMP1 Raw Est Fold Change (DAY 7): −11.92; TMEM2 Raw Est Fold Change (DAY 7): −3.07; TMEM49 Raw Est Fold Change (DAY 7): −1.98; TNFSF14 Raw Est Fold Change (DAY 7): −2.68; TOR1B Raw Est Fold Change (DAY 7): −1.39; TPM1 Raw Est Fold Change (DAY 7): 1.77; TRIB3 Raw Est Fold Change (DAY 7): 1.84; TRIM14 Raw Est Fold Change (DAY 7): 1.68; TXNIP Raw Est Fold Change (DAY 7): −7.72; UBE1L Raw Est Fold Change (DAY 7): 1.65; UBE2S Raw Est Fold Change (DAY 7): −1.95; ULK4 Raw Est Fold Change (DAY 7): −4.12; UPP2 Raw Est Fold Change (DAY 7): 16.78; USP25 Raw Est Fold Change (DAY 7): 1.84; WARS Raw Est Fold Change (DAY 7): −1.50; WAS Raw Est Fold Change (DAY 7): 3.44; XRCC6BP1 Raw Est Fold Change (DAY 7): 1.33; ZC3HAV1 Raw Est Fold Change (DAY 7): −1.57; ZNF24 Raw Est Fold Change (DAY 7): −1.16; ZNF276 Raw Est Fold Change (DAY 7): 1.44; ZNF313 Raw Est Fold Change (DAY 7): 1.31; interferon-stimulated genes (ISGs) expression (microarray heat map, FIG. 15): down-regulated interferon-stimulated genes (ISGs) as early as 2 hr; CREB3L1 expression (microarray, FIG. 15): down-regulated as early as 2 hr post treatment; SLC10A1 expression (microarray, FIG. 15): up-regulated at 7 day post-treatment
